From patent publication US10358448B2, “Therapeutic compounds for pain and synthesis thereof” (priority 2015, dated 2019)
Where “and” joins values, the source holds several entries; their conditions need not be identical. Equal entries are not always repeated.

Legend:
[1] = system: Taxol model of neuropathic pain; test: Taxol animal model for neuropathic pain in mice; assay type: in vivo
Excerpt: (§1) Table 7 summarizes the activity of Formula 1 in mice models of neuropathic pain following repeated daily administration using different routes of administration.

[2] = system: CCl model of neuropathic pain; test: CCl animal model for neuropathic pain in mice; assay type: in vivo; conditions: SC, 150 mg/kg, repeated daily administration
Excerpt: as §1

[3] = PO, 30 mg/kg, repeated daily administration
[4] = SC, doses tested 1, 3, 10 mg/kg, repeated daily administration

CC(C)(C)C(=O)O[C@@H]1C2[C@H]3C[C@H](C[C@@H]1N3CC1CC1)CN2C(=O)CC(F)(F)F (stereo partly drawn) [Formula 1, (2S,3S,6R,7aR)-1-(cyclopropylmethyl)-4-(3,3,3-trifluoropropanoyl)octahydro-1H-2,6-methanopyrrolo[3,2-b]pyridin-3-yl pivalate]
Duration of activity at maximum effect [1, 3]: 3 days
Level of activity (% of maximum effect-baseline) [1, 3]: 100%
Peak of activity (T) [1, 3]: 1-24 H
Dose of maximum activity ([1]; PO, dose tested 30 mg/kg): <30 mg/kg
Dose of maximum activity ([1]; SC, doses tested 1, 3, 10 mg/kg): 1 mg/kg
Duration of activity at maximum effect [1, 4]: 3 days
Level of activity (% of maximum effect-baseline) [1, 4]: 100%

NCC1(CC(=O)O)CCCCC1 [Gabapentin]
Duration of activity at maximum effect [2]: 4-6 H
Level of activity (% of maximum effect-baseline) [2]: >100% and 64%
Peak of activity (T) [2]: 2-3 H
